Results from ChEMBL document CHEMBL1130925, “Anti-AIDS agents. 33. Synthesis and anti-HIV activity of mono-methyl substituted 3',4'-di-O-(-)-camphanoyl-(+)-cis-khellactone (DCK) analogues” (Bioorg Med Chem Lett, 1998).

Experiments:
H9 [1] = test: Compound was evaluated for anti-HIV activity in acutely infected H9 Lymphocytes; assay type: functional, cell-based; details: Homo sapiens
H9 [2] = test: Compound was evaluated for anti-HIV activity and the concentration that inhibits uninfected H9 cell growth by 50%; assay type: functional, cell-based; details: Homo sapiens
[3] = Compound was tested for anti HIV activity by measuring therapeutic index in H9 lymphocytes; IC50/EC50; assay type: organism-based; details: human immunodeficiency virus, H9 lymphocytes infected with HIV; read-out: TI

Row | Compound | EC50 (H9 [1]) [nM] | IC50 (H9 [2]) [nM] | selectivity ratio [3]
1 | Cc1cc2c(c3oc(=O)ccc13)[C@@H](OC(=O)C13CCC(C)(C(=O)O1)C3(C)C)[C@@H](OC(=O)C13CCC(C)(C(=O)O1)C3(C)C)C(C)(C)O2 (stereo not given in full) | 0.000423 | > 157000 | –
2 | CC1(C)Oc2ccc3ccc(=O)oc3c2[C@@H](OC(=O)C23CCC(C)(C(=O)O2)C3(C)C)[C@H]1OC(=O)C12CCC(C)(C(=O)O1)C2(C)C (stereo not given in full) | – | – | 137000
3 | Cc1cc2ccc(=O)oc2c2c1OC(C)(C)[C@H](OC(=O)C13CCC(C)(C(=O)O1)C3(C)C)[C@@H]2OC(=O)C12CCC(C)(C(=O)O1)C2(C)C (stereo not given in full) | 150 | 33000 | 220

Further lines, with some results ahead:

Row | EC50 (H9 [1]) [nM] | Compound | IC50 (H9 [2]) [nM] | selectivity ratio [3]
4 | 0.000157 | Cc1cc2ccc3c(c2oc1=O)[C@@H](OC(=O)C12CCC(C)(C(=O)O1)C2(C)C)[C@@H](OC(=O)C12CCC(C)(C(=O)O1)C2(C)C)C(C)(C)O3 (stereo not given in full) | > 157000 | –
5 | 0.000157 | Cc1cc(=O)oc2c3c(ccc12)OC(C)(C)[C@H](OC(=O)C12CCC(C)(C(=O)O1)C2(C)C)[C@@H]3OC(=O)C12CCC(C)(C(=O)O1)C2(C)C (stereo not given in full) | > 157000 | –
